Assay results as given in US8247424B2, “Fredericamycin derivatives” (Zentopharm GmbH, priority 2002, dated 2012).
Values after ≈ are worked out from the molar mass of the structure shown.

Experiments:
[1] = system: 12 cancer cell lines: LCL (H460, lung), MACL (MCF7, breast), LXFL (52L, lung), LXFA (629L, lung), MEXF (462NL, melanoma), MEXF (514L, melanoma), MAXF (401NL …); experiment: Biological activity against 12 cancer cell lines, efficacy (IC70) averaged over all cell lines; format: cell-based; conditions: averaged over all 12 cancer cell lines, 5 test concentrations;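 further: panel also covers renal lines RXF 944L and RXF 486L, uterine UXF 1138L, and prostate lines PRXF PC3M and PRXF 22RV1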
Description: LCL (H460, lung), MACL (MCF7, breast), LXFL (52L, lung), LXFA (629L, lung), MEXF (462NL, melanoma), MEXF (514L, melanoma), MAXF (401NL, breast), RXF (944L, renal), RXF (486L, renal), UXF (1138L, uterus), PRXF (PC3M, prostate), PRXF (22RV1).

[2] = Water solubility of the fredericamycin derivatives; format: physicochemical; conditions: statement in the synthesis text, medium not given
[3] = Water solubility of the fredericamycin derivatives; format: physicochemical; conditions: 0.9% NaCl solution, pH 7
Description: The water solubility of the various fredericamycin derivatives can be determined in a 0.9% NaCl solution with a pH of 7.

Compound | IC70 [1] [µg/mL] | water solubility compared to fredericamycin (1) [2] | water solubility [3]
COC1=CC(=O)c2c(O)c3c(c(O)c2C1=O)C(=O)[C@@]1(CCc2cc4cc(C(O)C(O)C(O)C(C)O)[nH]c(=O)c4c(O)c21)C3=O (stereo partly drawn) [Example 1, 1-Desoxy-5-C-[(8R)-4′,9,9′-trihydroxy-6′-methoxy-1,1′,3′,5′,8′-pentaoxo-1,1′,2,3′,5′,6,7,8′-octahydrospiro[cyclopenta[g]isoquinoline-8,2′-cyclopenta[b]-naphalene]-3-yl]pentitol] | 0.1130 (≈ 0.186 µM) | – | –
COC1=CC(=O)c2c(O)c3c(c(O)c2C1=O)C(=O)C1(CCc2cc4cc(C(O)C(O)C(O)C(C)O)[nH]c(=O)c4c(O)c21)C3=O [Example 2, Tri-potassium-1-desoxy-5-C-[(8R)-4′,9,9′-trihydroxy-6′-methoxy-1,1′,3′,5′,8′-pentaoxo-1,1′,2,3′,5′,6,7,8′-octahydrospiro[cyclopenta[g]isoquinoline-8,2′-cyclopenta[b]-naphthalene]-3-yl]pentitol] | – | significantly higher water solubility | soluble
COC1=CC(=O)c2c(O)c3c(c(O)c2C1=O)C(=O)[C@]1(CCc2cc4cc(C=O)[nH]c(=O)c4c(O)c21)C3=O [Example 3, (8S)-4′,9,9′-trihydroxy-6′-methoxy-1,1′,3′,5′,8′-pentaoxo-1,1′,2,3′,5′,6,7,8′-octahydrospiro[cyclopenta[g]isoquinoline-8,2′-cyclopenta[b]-naphthalene]-3-carbaldehyde] | – | – | dissolve very well
COC1=CC(=O)c2c(O)c3c(c(O)c2C1=O)C(=O)[C@]1(CCc2cc4cc(/C=N/NC(=O)C[n+]5ccccc5)[nH]c(=O)c4c(O)c21)C3=O.[Cl-] [Example 5, 1-[2-Oxo-2-((2E)-2-{[(8S)-4′,9,9′-trihydroxy-6′-methoxy-1,1′,3′,5′,8′-pentaoxo-1,1′,2,3′,5′,6,7,8′-octahydrospiro[cyclopenta[g]isoquinoline-8,2′-cyclopenta[b]-naphthalene]-3-yl]methylene}hydrazino)-ethyl]pyridinium chloride] | – | – | sufficiently and markedly better soluble than fredericamycin
CON=Cc1cc2cc3c(c(O)c2c(=O)[nH]1)[C@@]1(CC3)C(=O)c2c(O)c3c(c(O)c2C1=O)C(=O)C(OC)=CC3=O [Example 7, (8S)-4′,9,9′-trihydroxy-6′-methoxy-1,1′,3′,5′,8′-pentaoxo-1,1′,2,3′,5′,6,7,8′-octahydrospiro[cyclopenta[g]isoquinoline-8,2′-cyclopenta[b]-naphthalene]-3-carbaldehyde-O-methyloxime] | – | – | sufficiently and markedly better soluble than fredericamycin
COC1=CC(=O)c2c(O)c3c(c(O)c2C1=O)C(=O)[C@]1(CCc2cc4cc(C(=O)O)[nH]c(=O)c4c(O)c21)C3=O [Example 11, (8S)-4′,9,9′-trihydroxy-6′-methoxy-1,1′,3′,5′,8′-pentaoxo-1,1′,2,3′,5′,6,7,8′-octahydrospiro[cyclopenta[g]isoquinoline-8,2′-cyclopenta[b]-naphthalene]-3-carboxylic acid] | – | – | sufficiently and markedly better soluble than fredericamycin
COC1=CC(=O)c2c(O)c3c(c(O)c2C1=O)C(=O)[C@]1(CCc2cc4cc(C(=O)[O-])[nH]c(=O)c4c(O)c21)C3=O.[K+] [Example 12, Potassium(8S)-4′,9,9′-trihydroxy-6′-methoxy-1,1′,3′,5′,8′-pentaoxo-1,1′,2,3′,5′,6,7,8′-octahydrospiro[cyclopenta[g]isoquinoline-8,2′-cyclopenta[b]-naphthalene]-3-carboxylate] | – | – | sufficiently and markedly better soluble than fredericamycin
C/C=C/C=C/c1cc2cc3c(c(O)c2c(=O)[nH]1)[C@@]1(CC3)C(=O)c2c(O)c3c(c(O)c2C1=O)C(=O)C(NC)=CC3=O [Example 265] | 0.1330 (≈ 0.247 µM) | – | –
N.N.[Cl][Pt][Cl] [cisplatin] | 37.1020 | – | –
(8S)-4′,9,9′-trihydroxy-6′-methoxy-1,1′,3′,5′,8′-pentaoxo-1,1′,2,3′,5′,6,7,8′-octahydrospiro[cyclopenta[g]isoquinoline-8,2′-cyclopenta[b]-naphthalene]-1,1′,3′,5′,8′(2H)-pentone [Example 10] | – | – | soluble
(8S)-4′,9,9′-trihydroxy-6′-methoxy-1,1′,3′,5′,8′-pentaoxo-1,1′,2,3′,5′,6,7,8′-octahydrospiro[cyclopenta[g]isoquinoline-8,2′-cyclopenta[b]-naphthalene]-3-carbaldehyde oxime [Example 6] | – | – | dissolves well
(8S)-5-bromo-4′,9,9′-trihydroxy-6′-methoxy-1,1′,3′,5′,8′-pentaoxo-1,1′,2,3′,5′,6,7,8′-octahydrospiro[cyclopenta[g]isoquinoline-8,2′-cyclopenta[b]-naphthalene]-1,1′,3′,5′,8′(2H)-pentone [Example 13] | 0.0050 | – | soluble
(8S)-5-chloro-4′,6′,9′-trimethoxy-2-methoxy-3-[(1E,3E)-penta-1,3-dienyl]-6,7-dihydrospiro[cyclopenta[g]isoquinoline-8,2′-cyclopenta[b]-naphthalene]-1,1′,3′,5′,8′(2H)-pentone [Example 22] | 0.0080 | – | –
